Experimental data taken from US6713506B2, “Tea polyphenol esters and analogs thereof for cancer prevention and treatment” (University of South Florida, priority 2000, dated 2004).
Entries after “also recorded” stand apart in the source; their conditions may differ.

How the values were obtained:
[1] = biological target: T1, proteasomal trypsin-like activity in Jurkat T cell extract (Homo sapiens, UniProt Q99436); experiment: Proteasome trypsin-like activity in Jurkat T cell free extract; assay type: biochemical; conditions: EGCG 10 μM
T1 construct: endogenous in cells; host or cells: Jurkat T cells (whole cell extract or intact cells)
Protocol: Inhibition of the proteasome activity with cell free extracts by tea polyphenols—The whole cell extract (3.5 μg) from Jurkat T cells is incubated for 90 min at 37° C. with 20 μM of a fluorogenic peptide substrate, Suc-Leu-Leu-Val-Tyr-AMC (for the chymotrypsin-like activity), Z-Leu-Leu-Glu-AMC [peptidyl-glutamyl peptide-hydrolyzing (PGPH) activity; Calbiochem], and Z-Gly-Gly-Arg-AMC (for the trypsin-like activity; Bachem), in 100 μl of the assay buffer with or without 10 μM EGCG or EGC. The hydrolyzed AMCs are quantified as described above.

[2] = biological target: T2, chymotrypsin-like activity in living breast (MCF7) cancer cells (Homo sapiens, UniProt P28074); experiment: Proteasome chymotrypsin-like activity in living MCF7 cells; assay type: cell-based
T2 construct: endogenous in cells; host or cells: MCF7 cells (intact)
Protocol: FIG. 16(A) The fluorogenic calpain I peptide substrate Suc-Leu-Tyr-AMC (S; 40 μM) is incubated with either a purified calpain I (P; 3 μg) or buffer (Buff) at 30° C. for 30 min with or without 10 μM calpeptin, EGCG or EGC, followed by measuring AMCs (the product), as described in the text. (B) T1 or T2 cells are treated with LLL at either 10 (A-C) or 50 μM (D, E), followed by Western blotting with indicated antibodies.(C) MCF-7 cells, pre-incubated with EGCG at an indicated concentration for 12 h, are incubation for additional 12 h with 20 μM Suc-Leu-Leu-Val-Tyr-AMC (the peptide substrate for the proteasomal chymotryptic activity), followed by measurement of AMCs in medium (as described in the grant and the manuscript). (D) Cell cycle-dependent p27 degradation. PCI-13 head and neck tumor cells are treated with aphidicolin (5 μg/ml) for 24 h (0 h), followed by release for up to 24 h. […]
(b) The peptide substrate for the proteasomal chymotrypsin-like activity, Suc-Leu-Leu-Val-Tyr-AMC, is used to measure the proteasome activity in intact Jurkat, MCF-7 and PC-3 cells, which is inhibitable by co-incubation with EGCG (FIG. 16C). […] After that, medium is collected and the liberated AMCs in the medium are measured by fluorometer to measure in vivo potency and selectivity of tea polyphenols.

[3] = test system: LNCaP prostate cancer cells; experiment: Cell cycle analysis by flow cytometry, LNCaP cells; assay type: cell-based, human; conditions: 10 μM, 36 h
Protocol: (§1) FIG. 6. Cell cycle analysis. Asynchronous Jurkat, LNCaP, WI-38, and VA-13 cells are treated with 10 μM EGCG and harvested at the time points indicated. Cells are prepared and analyzed by flow cytometry as described in the The Materials and Methods section of Example 1. Growth arrest is determined by the increase in the percentage of G1 population.
(§2) Cell cycle analysis—Cell cycle analysis based on DNA content is performed as follows. Cells are harvested, counted and washed twice with PBS. Cells (5×10^6 ) are then suspended in 0.5 ml PBS, pipetted and fixed in 5 ml of 70% ethanol for at least 2 h at −20° C. Cells are centrifuged, resuspended in 1 ml of propidium iodide staining solution (50 μg propidium iodide, 100 units RNase A and 1 mg glucose per ml PBS) and incubated at room temperature for 30 min. The cells are then analyzed with FACScan (Becton Dickinson Immunocytometry, CA.), ModFit LT and WinMDI V.2.8 cell cycle analysis software (Verity Software, Topsham, Me.). The cell cycle distribution is shown as the percentage of cells containing G1, S, G2, and M DNA judged by propidium iodide staining.

normal human WI-38 cells = experiment: Cell cycle analysis by flow cytometry, WI-38 cells; assay type: cell-based; conditions: WI-38, 10 μM
Protocol: as §1, §2

## O=C(O[C@@H]1Cc2c(O)cc(O)cc2O[C@@H]1c1cc(O)c(O)c(O)c1)c1cc(O)c(O)c(O)c1 [EGCG, (−)-epigallocatechin-3-gallate]
[1]
  effect on proteasomal trypsin-like activity (in words): does not affect
[2]
  inhibition of chymotrypsin-like activity in living MCF7 cells (in words): inhibitable; also recorded: inhibits
[3]
  increase in G1 population: ~25%
Normal human WI-38 cells; 12 h
  decrease in G1 population: 22%
  increase in G2/M population: 6%
  increase in S population: 16%
Normal human WI-38 cells; 36 h
  increase in G1 population: 22%
